Columns and labels:
Experiment in all cases: Kinase panel enzymatic inhibition assay (Nanosyn)
Type in all cases: biochemical
Details in all cases: compound 5 μM; ATP at Km; 30-minute pre-incubation
[1] = molecular target: T1, KDR (Homo sapiens, UniProt P35968)
T1 construct: purchased Nanosyn (contract screening)
Summary of the method: (§1)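 Inhibition is expressed as percent at 5 μM or as IC50, with ATP set at the Km of each kinase and a 30-minute compound pre-incubation. Detection used an accepted enzymatic format such as Caliper mobility shift.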

[2] = tested on: EPH
Summary of the method: as §1

[3] = molecular target: T2, PIKfyve (Homo sapiens, UniProt Q9Y2I7)
T2 construct: Nanosyn (contract laboratory that ran the panel)
Summary of the method: as §1

[4] = molecular target: T3, MNK2 (Homo sapiens, UniProt Q9HBH9)
T3 construct: Nanosyn (contract laboratory that ran the panel)
Summary of the method: as §1

[5] = molecular target: T4, Abl2 (Homo sapiens, UniProt P42684)
T4 construct: purchased Nanosyn (contract screening)
Summary of the method: as §1

[6] = molecular target: T5, HCK (Homo sapiens, UniProt P08631)
T5 construct: purchased Nanosyn (contract screening)
Summary of the method: as §1

[7] = molecular target: T6, SGK2 (Homo sapiens, UniProt Q9HBY8)
T6 construct: Nanosyn (contract laboratory that ran the panel)
T6 sequence (Q9HBY8 1-367): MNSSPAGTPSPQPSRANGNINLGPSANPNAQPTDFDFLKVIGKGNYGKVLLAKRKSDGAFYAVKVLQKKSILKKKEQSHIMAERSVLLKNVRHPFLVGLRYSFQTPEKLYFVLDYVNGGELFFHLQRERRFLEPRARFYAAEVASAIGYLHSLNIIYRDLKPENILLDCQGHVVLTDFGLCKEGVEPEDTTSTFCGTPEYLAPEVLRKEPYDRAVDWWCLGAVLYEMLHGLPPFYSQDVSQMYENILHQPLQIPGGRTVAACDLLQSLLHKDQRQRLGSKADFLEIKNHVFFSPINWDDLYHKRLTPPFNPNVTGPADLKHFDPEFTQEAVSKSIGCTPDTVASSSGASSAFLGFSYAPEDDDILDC
Summary of the method: as §1

[8] = molecular target: T7, TNIK (Homo sapiens, UniProt Q9UKE5)
T7 construct: Nanosyn (contract laboratory that ran the panel)
Summary of the method: as §1

[9] = molecular target: T8, MAP4K2 (Homo sapiens, UniProt Q12851)
T8 construct: purchased Nanosyn (contract screening)
T8 sequence (Q12851 1-820): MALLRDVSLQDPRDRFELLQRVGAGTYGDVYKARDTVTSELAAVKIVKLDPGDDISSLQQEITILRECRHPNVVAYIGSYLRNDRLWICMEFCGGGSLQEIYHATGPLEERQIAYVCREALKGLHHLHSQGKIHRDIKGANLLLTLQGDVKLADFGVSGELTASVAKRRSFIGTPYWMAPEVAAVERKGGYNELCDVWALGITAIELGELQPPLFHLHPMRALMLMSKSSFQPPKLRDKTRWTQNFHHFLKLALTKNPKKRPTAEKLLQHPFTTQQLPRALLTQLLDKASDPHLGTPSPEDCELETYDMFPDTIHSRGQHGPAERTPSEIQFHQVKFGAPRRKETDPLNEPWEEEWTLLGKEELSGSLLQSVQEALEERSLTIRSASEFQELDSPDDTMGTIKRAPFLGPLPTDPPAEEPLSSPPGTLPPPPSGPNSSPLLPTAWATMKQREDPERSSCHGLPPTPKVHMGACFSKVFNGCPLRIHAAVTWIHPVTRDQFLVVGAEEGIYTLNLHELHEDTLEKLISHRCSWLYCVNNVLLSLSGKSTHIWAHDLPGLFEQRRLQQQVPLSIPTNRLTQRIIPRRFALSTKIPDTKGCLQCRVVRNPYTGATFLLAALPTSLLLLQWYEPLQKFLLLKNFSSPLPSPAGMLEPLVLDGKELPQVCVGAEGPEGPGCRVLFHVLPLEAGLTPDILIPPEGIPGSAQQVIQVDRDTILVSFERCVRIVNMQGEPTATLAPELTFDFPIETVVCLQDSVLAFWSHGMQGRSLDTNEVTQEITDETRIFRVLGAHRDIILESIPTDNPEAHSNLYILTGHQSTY
Summary of the method: as §1

[10] = molecular target: T9, DDR1 (Homo sapiens, UniProt Q08345)
T9 construct: purchased Nanosyn (contract screening)
Summary of the method: as §1

[11] = molecular target: T10, BLK (Homo sapiens, UniProt P51451)
T10 construct: purchased Nanosyn (contract screening)
Summary of the method: as §1

[12] = molecular target: T11, ZAK (Homo sapiens, UniProt Q9NYL2)
T11 construct: Nanosyn (contract laboratory that ran the panel)
Summary of the method: as §1

[13] = molecular target: T12, SRC (Homo sapiens, UniProt P12931)
T12 construct: Nanosyn (contract laboratory that ran the panel)
Summary of the method: as §1

[14] = molecular target: T13, PDGFRb (Homo sapiens, UniProt P09619)
T13 construct: Nanosyn (contract laboratory that ran the panel)
Summary of the method: as §1

[15] = molecular target: T14, SGK3 (Homo sapiens, UniProt Q96BR1)
T14 construct: Nanosyn (contract laboratory that ran the panel)
T14 sequence (Q96BR1 1-496): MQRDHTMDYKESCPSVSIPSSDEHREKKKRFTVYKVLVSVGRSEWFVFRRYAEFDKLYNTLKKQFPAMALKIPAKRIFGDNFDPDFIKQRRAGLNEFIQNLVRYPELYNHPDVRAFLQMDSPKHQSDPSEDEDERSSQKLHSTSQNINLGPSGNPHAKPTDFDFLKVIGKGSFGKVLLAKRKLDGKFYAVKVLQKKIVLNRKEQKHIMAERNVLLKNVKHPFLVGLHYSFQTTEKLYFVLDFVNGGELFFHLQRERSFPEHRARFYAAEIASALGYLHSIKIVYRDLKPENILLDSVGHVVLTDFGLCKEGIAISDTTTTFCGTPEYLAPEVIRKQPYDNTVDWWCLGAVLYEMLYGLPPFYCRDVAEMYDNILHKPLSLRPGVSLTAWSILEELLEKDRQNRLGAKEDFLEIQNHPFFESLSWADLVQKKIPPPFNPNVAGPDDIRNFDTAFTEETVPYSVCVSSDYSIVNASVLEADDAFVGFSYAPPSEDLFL
Summary of the method: as §1

[16] = molecular target: T15, p38b (Homo sapiens, UniProt Q15759)
T15 construct: Nanosyn (contract laboratory that ran the panel)
Summary of the method: as §1

T2 sequence (Q9Y2I7 whole entry): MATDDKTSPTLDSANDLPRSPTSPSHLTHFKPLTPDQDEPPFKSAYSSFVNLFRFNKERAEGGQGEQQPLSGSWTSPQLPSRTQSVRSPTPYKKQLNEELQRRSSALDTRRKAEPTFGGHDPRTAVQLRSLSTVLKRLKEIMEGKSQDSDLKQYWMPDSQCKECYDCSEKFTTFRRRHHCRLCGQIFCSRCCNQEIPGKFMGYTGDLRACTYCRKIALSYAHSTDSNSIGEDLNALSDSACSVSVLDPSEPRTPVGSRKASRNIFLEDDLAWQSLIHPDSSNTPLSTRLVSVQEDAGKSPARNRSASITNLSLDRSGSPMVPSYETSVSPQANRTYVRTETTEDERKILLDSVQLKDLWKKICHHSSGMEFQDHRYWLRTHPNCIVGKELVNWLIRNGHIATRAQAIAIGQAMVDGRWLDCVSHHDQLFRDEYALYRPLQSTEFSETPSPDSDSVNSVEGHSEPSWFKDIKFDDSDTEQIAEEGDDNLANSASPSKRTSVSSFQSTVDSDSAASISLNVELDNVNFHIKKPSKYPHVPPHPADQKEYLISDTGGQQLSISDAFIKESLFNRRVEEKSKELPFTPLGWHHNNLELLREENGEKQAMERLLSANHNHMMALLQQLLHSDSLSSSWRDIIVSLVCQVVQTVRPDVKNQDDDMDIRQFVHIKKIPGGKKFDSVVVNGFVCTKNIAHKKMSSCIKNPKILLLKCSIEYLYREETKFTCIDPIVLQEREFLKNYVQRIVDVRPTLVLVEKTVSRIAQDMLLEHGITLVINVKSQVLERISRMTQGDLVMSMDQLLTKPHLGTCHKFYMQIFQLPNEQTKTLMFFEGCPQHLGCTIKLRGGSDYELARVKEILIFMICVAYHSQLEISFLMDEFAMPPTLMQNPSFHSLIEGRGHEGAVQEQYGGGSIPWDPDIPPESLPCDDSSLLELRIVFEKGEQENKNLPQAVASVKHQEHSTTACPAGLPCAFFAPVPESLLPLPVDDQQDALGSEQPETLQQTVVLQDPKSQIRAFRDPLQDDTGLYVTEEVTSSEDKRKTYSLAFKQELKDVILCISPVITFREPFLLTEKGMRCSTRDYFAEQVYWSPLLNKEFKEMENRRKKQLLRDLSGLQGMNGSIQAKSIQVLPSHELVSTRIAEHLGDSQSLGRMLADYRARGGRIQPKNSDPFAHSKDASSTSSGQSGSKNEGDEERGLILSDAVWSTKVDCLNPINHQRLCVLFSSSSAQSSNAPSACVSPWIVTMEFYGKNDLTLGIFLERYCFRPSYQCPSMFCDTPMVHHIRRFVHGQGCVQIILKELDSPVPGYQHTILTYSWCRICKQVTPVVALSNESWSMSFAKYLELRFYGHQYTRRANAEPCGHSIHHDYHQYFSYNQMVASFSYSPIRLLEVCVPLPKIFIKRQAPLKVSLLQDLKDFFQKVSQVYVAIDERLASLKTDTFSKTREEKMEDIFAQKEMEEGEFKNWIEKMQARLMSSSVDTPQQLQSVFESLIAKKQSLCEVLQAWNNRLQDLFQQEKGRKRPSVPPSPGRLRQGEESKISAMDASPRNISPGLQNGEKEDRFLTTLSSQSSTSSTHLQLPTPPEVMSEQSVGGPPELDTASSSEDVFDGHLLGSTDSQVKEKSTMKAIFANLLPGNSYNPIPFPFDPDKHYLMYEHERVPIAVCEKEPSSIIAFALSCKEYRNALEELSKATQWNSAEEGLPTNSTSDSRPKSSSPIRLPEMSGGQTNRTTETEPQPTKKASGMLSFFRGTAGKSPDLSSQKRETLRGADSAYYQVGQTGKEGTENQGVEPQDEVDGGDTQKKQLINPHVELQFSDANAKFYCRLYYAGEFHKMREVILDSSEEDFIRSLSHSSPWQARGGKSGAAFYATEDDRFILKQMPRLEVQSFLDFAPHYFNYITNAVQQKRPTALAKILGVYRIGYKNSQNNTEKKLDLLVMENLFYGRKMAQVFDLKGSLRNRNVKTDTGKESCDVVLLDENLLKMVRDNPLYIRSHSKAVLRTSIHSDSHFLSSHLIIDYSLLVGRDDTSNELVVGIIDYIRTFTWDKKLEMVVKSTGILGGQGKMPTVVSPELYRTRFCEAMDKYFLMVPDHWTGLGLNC
T1 sequence (P35968 20-1356): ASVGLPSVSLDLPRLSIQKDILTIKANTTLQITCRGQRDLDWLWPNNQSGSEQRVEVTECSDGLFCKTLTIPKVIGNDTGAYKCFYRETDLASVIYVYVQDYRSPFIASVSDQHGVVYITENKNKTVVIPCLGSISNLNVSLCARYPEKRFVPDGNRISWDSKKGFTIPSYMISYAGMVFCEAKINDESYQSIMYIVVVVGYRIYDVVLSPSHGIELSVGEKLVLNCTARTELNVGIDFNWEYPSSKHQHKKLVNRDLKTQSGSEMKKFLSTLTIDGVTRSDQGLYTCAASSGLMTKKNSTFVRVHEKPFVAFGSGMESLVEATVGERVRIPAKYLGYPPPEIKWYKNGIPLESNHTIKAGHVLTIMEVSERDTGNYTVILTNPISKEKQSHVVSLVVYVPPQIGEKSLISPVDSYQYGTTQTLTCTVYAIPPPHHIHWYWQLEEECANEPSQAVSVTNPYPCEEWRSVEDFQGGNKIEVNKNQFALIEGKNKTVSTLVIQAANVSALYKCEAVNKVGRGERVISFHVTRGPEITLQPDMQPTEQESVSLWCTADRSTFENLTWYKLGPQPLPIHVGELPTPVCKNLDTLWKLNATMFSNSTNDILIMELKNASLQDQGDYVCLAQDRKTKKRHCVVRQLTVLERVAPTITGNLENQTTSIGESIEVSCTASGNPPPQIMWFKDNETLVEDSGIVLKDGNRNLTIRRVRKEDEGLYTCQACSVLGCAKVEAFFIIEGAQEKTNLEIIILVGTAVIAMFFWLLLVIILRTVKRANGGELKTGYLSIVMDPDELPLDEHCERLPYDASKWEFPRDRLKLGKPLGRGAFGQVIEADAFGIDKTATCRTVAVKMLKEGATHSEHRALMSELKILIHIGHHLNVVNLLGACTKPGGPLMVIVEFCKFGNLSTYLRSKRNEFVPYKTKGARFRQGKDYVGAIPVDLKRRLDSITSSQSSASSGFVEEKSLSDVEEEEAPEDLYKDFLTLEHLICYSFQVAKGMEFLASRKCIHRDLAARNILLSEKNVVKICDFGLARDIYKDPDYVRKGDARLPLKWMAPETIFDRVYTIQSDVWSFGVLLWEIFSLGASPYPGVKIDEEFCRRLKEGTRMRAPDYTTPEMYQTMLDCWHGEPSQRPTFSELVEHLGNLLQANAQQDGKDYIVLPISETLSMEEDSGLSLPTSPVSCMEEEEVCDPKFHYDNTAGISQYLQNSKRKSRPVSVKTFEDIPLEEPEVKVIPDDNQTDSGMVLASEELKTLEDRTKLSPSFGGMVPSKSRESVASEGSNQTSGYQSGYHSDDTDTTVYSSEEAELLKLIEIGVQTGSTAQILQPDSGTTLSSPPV
T15 sequence (Q15759 whole entry): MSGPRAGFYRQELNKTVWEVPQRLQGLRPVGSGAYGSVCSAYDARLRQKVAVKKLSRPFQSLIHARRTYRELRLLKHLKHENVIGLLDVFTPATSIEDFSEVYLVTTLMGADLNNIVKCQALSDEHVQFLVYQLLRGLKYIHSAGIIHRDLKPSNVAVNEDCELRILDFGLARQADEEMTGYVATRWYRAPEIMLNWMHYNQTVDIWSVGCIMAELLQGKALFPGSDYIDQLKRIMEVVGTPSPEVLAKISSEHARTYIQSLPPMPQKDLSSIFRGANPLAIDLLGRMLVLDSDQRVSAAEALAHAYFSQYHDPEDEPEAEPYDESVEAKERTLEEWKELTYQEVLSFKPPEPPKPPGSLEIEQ
T10 sequence (P51451 whole entry): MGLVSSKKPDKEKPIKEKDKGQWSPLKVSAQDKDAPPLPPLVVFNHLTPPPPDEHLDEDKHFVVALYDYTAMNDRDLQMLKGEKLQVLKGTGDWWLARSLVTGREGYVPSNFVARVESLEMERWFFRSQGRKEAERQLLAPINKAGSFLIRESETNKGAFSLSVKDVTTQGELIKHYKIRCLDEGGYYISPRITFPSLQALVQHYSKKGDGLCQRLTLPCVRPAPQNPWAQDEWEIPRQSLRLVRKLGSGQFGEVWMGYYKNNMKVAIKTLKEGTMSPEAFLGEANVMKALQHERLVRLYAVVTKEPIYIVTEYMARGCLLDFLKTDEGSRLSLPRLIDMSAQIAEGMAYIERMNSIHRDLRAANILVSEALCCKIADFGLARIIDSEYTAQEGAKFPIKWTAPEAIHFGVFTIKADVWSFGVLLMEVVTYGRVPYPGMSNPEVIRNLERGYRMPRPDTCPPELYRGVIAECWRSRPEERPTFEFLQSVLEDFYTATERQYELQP
T3 sequence (Q9HBH9 whole entry): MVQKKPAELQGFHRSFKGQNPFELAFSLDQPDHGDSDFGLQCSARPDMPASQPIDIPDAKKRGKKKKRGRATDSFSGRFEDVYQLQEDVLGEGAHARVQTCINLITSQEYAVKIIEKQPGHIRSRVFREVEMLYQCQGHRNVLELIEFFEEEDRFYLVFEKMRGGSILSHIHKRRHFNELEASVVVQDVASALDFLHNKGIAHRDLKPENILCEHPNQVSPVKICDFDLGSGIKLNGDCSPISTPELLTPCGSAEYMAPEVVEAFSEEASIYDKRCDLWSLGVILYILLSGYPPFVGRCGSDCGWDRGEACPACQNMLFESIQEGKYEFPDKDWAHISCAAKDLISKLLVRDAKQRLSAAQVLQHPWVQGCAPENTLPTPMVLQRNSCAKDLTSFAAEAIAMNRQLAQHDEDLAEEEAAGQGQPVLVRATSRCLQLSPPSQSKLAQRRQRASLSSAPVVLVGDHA

Structure (SMILES) | inhibition at 5 µM [1] [%] | kinase inhibition, EPH [2] | inhibition at 5 µM [3] [%] | inhibition at 5 µM [4] [%] | inhibition at 5 µM [5] [%] | inhibition at 5 µM [6] [%] | inhibition at 5 µM [7] [%] | inhibition at 5 µM [8] [%] | inhibition at 5 µM [9] [%] | inhibition at 5 µM [10] [%] | inhibition at 5 µM [11] [%] | inhibition at 5 µM [12] [%] | inhibition at 5 µM [13] [%] | inhibition at 5 µM [14] [%] | inhibition at 5 µM [15] [%] | inhibition at 5 µM [16] [%]
Cc1ccc(NC(=O)c2cc([S+](C)[O-])n(-c3ccc(F)cc3)n2)cc1-c1cc(N2CCOCC2)c(=O)n(C)c1 (stereo not shown) [Ex11, 1-(4-fluorophenyl)-N-(4-methyl-3-(1-methyl-5-morpholino-6-oxo-1,6-dihydropyridin-3-yl)phenyl)-5-(methylsulfinyl)-1H-pyrazole-3-carboxamide] | < 79 | D (D=79% and less) | < 79 | < 79 | < 79 | < 79 | < 79 | < 79 | < 79 | < 79 | < 79 | < 79 | < 79 | < 79 | < 79 | < 79
Cc1ccc(NC(=O)c2cc(S(C)(=O)=O)n(-c3ccc(F)cc3)n2)cc1-c1cc(N2CCOCC2)c(=O)n(C)c1 [Ex12, 1-(4-fluorophenyl)-N-(4-methyl-3-(1-methyl-5-morpholino-6-oxo-1,6-dihydropyridin-3-yl)phenyl)-5-(methylsulfonyl)-1H-pyrazole-3-carboxamide] | < 79 | D (D=79% and less) | < 79 | < 79 | < 79 | < 79 | < 79 | < 79 | < 79 | 80 to 89 | < 79 | < 79 | < 79 | < 79 | < 79 | < 79
Cc1ccc(NC(=O)c2cc(S(C)(=O)=O)n(-c3ccc(F)cc3)n2)cc1Nc1nccc(-c2cccnc2N)n1 [Ex13, N-(3-((4-(2-aminopyridin-3-yl)pyrimidin-2-yl)amino)-4-methylphenyl)-1-(4-fluorophenyl)-5-(methylsulfonyl)-1H-pyrazole-3-carboxamide] | < 79 | D (D=79% and less) | < 79 | < 79 | ≥ 95 | < 79 | < 79 | < 79 | < 79 | ≥ 95 | < 79 | < 79 | < 79 | ≥ 95 | < 79 | < 79
Cc1ccc(NC(=O)c2cc(S(C)(=O)=O)n(-c3ccc(F)cc3)n2)cc1C#Cc1cnc2cccnn12 [Ex14, 1-(4-fluorophenyl)-N-(3-(imidazo[1,2-b]pyridazin-3-ylethynyl)-4-methylphenyl)-5-(methylsulfonyl)-1H-pyrazole-3-carboxamide] | 90 to 94 | D (D=79% and less) | 80 to 89 | < 79 | ≥ 95 | 90 to 94 | < 79 | < 79 | < 79 | ≥ 95 | 80 to 89 | 80 to 89 | < 79 | 90 to 94 | < 79 | < 79
CCOC(=O)Nc1cn2nc(Nc3cc(NC(=O)c4cc(S(C)(=O)=O)n(-c5ccc(F)cc5)n4)ccc3C)ccc2n1 [Ex15, ethyl (6-((5-(1-(4-fluorophenyl)-5-(methylsulfonyl)-1H-pyrazole-3-carboxamido)-2-methylphenyl)amino)imidazo[1,2-b]pyridazin-2-yl)carbamate] | 80 to 89 | D (D=79% and less) | < 79 | < 79 | ≥ 95 | 80 to 89 | < 79 | < 79 | < 79 | ≥ 95 | < 79 | < 79 | 90 to 94 | ≥ 95 | < 79 | 80 to 89
CNC(=O)c1cc(Oc2ccc(NC(=O)c3cc(S(C)(=O)=O)n(-c4ccc(F)cc4)n3)c(F)c2)ccn1 [Ex17, 4-(3-fluoro-4-(1-(4-fluorophenyl)-5-(methylsulfonyl)-1H-pyrazole-3-carboxamido)phenoxy)-N-methylpicolinamide] | < 79 | D (D=79% and less) | < 79 | < 79 | < 79 | < 79 | < 79 | < 79 | < 79 | 80 to 89 | < 79 | < 79 | < 79 | < 79 | < 79 | < 79
CCOC(=O)Nc1cn2nc(Nc3cc(NC(=O)c4cc([S+](C)[O-])n(-c5ccc(F)cc5)n4)ccc3C)ccc2n1 (stereo not shown) [Ex18, ethyl (6-((5-(1-(4-fluorophenyl)-5-(methylsulfinyl)-1H-pyrazole-3-carboxamido)-2-methylphenyl)amino)imidazo[1,2-b]pyridazin-2-yl)carbamate] | < 79 | D (D=79% and less) | < 79 | < 79 | 80 to 89 | ≥ 95 | < 79 | < 79 | < 79 | ≥ 95 | < 79 | < 79 | 80 to 89 | 90 to 94 | < 79 | 80 to 89

Source: US20240400577A1, “MODULATORS OF PROTEIN KINASES” (VIBLIOME THERAPEUTICS, LLC, priority 2021, published 2024)
